Data: patent US20250171431A1, “HETEROCYCLIC INHIBITORS OF IGF-1R FOR TREATMENT OF DISEASE” (HORIZON THERAPEUTICS IRELAND DAC, priority 2023, published 2025)

Molecular target: IGF-1R (Homo sapiens (Human), UniProt P08069)
Assay: Example B-1: IGF-1R Assay (PC3 cells, IGF1 stimulation, AlphaLISA)
Format: cell-based
Settings: 200 ng/mL IGF1 stimulation, read-out: Biological Activity against IGF-1R IC50
Procedure, shortened: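 PC3 cells were serum-starved 2 h, treated with serially diluted compounds for 2 h, then stimulated with IGF1 (200 ng/mL final) for 30 min. Lysates were read by AlphaLISA; % inhibition was calculated relative to vehicle and EC80 controls, with IC50 values binned into ranges.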

IGF-1R, sequence (P08069 31-1367): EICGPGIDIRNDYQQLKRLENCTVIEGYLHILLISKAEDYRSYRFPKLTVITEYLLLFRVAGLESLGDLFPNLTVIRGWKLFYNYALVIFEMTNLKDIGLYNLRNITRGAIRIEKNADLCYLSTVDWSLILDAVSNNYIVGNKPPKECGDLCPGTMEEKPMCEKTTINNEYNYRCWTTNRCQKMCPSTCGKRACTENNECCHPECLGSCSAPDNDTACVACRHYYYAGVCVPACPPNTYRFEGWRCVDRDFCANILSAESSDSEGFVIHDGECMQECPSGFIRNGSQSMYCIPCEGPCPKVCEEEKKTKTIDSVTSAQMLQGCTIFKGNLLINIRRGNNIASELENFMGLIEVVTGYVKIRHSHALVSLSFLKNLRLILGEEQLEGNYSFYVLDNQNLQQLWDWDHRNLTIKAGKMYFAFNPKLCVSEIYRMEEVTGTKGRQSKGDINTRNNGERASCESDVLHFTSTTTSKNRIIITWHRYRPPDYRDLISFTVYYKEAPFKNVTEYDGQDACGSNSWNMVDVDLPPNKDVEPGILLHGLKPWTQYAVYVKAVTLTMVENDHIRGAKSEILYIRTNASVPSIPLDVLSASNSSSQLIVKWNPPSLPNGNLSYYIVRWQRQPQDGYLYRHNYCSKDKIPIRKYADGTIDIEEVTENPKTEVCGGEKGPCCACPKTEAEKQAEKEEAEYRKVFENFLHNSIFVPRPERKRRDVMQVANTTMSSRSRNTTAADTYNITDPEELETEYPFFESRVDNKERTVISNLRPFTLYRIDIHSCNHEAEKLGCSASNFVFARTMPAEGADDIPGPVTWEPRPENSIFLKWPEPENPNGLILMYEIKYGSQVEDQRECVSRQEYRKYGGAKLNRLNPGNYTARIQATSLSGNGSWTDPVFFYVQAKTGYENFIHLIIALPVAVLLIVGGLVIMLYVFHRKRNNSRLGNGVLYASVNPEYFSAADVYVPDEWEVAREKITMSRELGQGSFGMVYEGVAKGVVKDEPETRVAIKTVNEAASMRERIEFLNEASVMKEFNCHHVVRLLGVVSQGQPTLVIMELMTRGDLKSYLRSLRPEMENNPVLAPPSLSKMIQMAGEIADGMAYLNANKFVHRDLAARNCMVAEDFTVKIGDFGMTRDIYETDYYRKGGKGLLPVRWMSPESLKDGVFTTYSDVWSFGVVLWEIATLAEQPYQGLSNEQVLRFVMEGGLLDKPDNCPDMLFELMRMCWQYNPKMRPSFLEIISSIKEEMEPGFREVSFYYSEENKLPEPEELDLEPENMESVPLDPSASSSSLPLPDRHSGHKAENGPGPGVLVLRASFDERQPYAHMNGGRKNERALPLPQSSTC

Row | Compound | IC50
1 | COc1cc(Nc2nccc(Nc3cnc4[nH]c(C)cc4c3)n2)ccc1O[C@H]1C[C@@H](N(C)C)C1 [Compound 283, 2-{3-methoxy-4-[(1s,3s)-3-(dimethylamino)cyclobutoxy]phenylamino}-4-(2-methyl-1H-1,7-diazainden-5-ylamino)pyrimidine] | ≤ 500 nM
2 | COc1cc(Nc2nccc(Nc3cc4cccc(F)c4[nH]c3=O)n2)cnc1O[C@@H]1CCN(C)C1 [Compound 165, 3-(2-{6-[(R)-1-methyl-3-pyrrolidinyloxy]-5-methoxy-3-pyridylamino}-4-pyrimidinylamino)-8-fluoro-1,2-dihydro-2-quinolinone] | 500 to 2000 nM
3 | COc1cc(N2CCN(CC#N)CC2)ncc1Nc1nccc(Nc2cc3cccc(F)c3[nH]c2=O)n1 [Compound 226, (4-{5-[4-(8-fluoro-2-oxo-1,2-dihydro-3-quinolylamino)-2-pyrimidinylamino]-4-methoxy-2-pyridyl}-1-piperazinyl)acetonitrile] | ≤ 500 nM
4 | COc1cc(O[C@H]2C[C@@H](N(C)C)C2)ccc1Nc1nccc(Nc2cnc3ccccc3c2)n1 [Compound 19, 2-{2-methoxy-4-[(1s,3s)-3-(dimethylamino)cyclobutoxy]phenylamino}-4-(3-quinolylamino)pyrimidine] | ≤ 500 nM
5 | COc1cc(Nc2nccc(Nc3cc4cccc(F)c4[nH]c3=O)n2)cnc1O[C@H]1CCN(C)C1 [Compound 166, 3-(2-{6-[(S)-1-methyl-3-pyrrolidinyloxy]-5-methoxy-3-pyridylamino}-4-pyrimidinylamino)-8-fluoro-1,2-dihydro-2-quinolinone] | 500 to 2000 nM
6 | COc1cc(Nc2nccc(Nc3cnc4c(c3)CC(O)CC4)n2)ccc1O[C@H]1C[C@@H](N(C)C)C1 (some centres unmarked) [Compound 82, 3-(2-{3-methoxy-4-[(1s,3s)-3-(dimethylamino)cyclobutoxy]phenylamino}-4-pyrimidinylamino)-5,6,7,8-tetrahydro-6-quinolinol] | 500 to 2000 nM
7 | COc1cc(Nc2nccc(Nc3cnc4ccc(C5CC5)cc4c3)n2)ccc1OCCCN1CCOCC1 [Compound 103, 4-(6-cyclopropyl-3-quinolylamino)-2-[3-methoxy-4-(3-morpholinopropoxy)phenylamino]pyrimidine] | ≤ 500 nM
8 | COc1cc(Nc2nccc(Nc3cnc4ccccc4c3)n2)cnc1O[C@H]1C[C@@H](N(C)C)C1 [Compound 132, N2-(6-((1s,3s)-3-(dimethylamino)cyclobutoxy)-5-methoxypyridin-3-yl)-N4-(quinolin-3-yl)pyrimidine-2,4-diamine] | ≤ 500 nM
9 | COc1cc(Nc2nccc(Nc3cnc4cncc(F)c4c3)n2)ccc1O[C@H]1C[C@@H](N(C)C)C1 [Compound 88, N2-(4-((1s,3s)-3-(dimethylamino)cyclobutoxy)-3-methoxyphenyl)-N4-(5-fluoro-1,7-naphthyridin-3-yl)pyrimidine-2,4-diamine] | ≤ 500 nM
10 | COc1cc(Nc2nccc(Nc3cnc4c(c3)COCC4)n2)ccc1OCCCN1CCCCC1 [Compound 53, 4-(7,8-dihydro-5H-6-oxa-1-azanaphth-3-ylamino)-2-[3-methoxy-4-(3-piperidinopropoxy)phenylamino] pyrimidine] | ≤ 500 nM
11 | COc1cc(Nc2nccc(Nc3cccnc3C(N)=O)n2)ccc1O[C@H]1C[C@@H](N(C)C)C1 [Compound 284, 3-(2-{3-methoxy-4-[(1s,3s)-3-(dimethylamino)cyclobutoxy]phenylamino}-4-pyrimidinylamino)-2-pyridinecarboxamide] | ≤ 500 nM
12 | COc1cc(Nc2nccc(Nc3cnc4c(c3)CC3(CCC3)CC4)n2)ccc1O[C@H]1C[C@H](N(C)C)C1 [Compound 80, 4-(7′,8′-dihydro-5′H-spiro[cyclobutane-1,6′-quinolin]-3′-ylamino)-2-{3-methoxy-4-[(1r,3r)-3-(dimethylamino)cyclobutoxy]phenylamino}pyrimidine] | ≤ 500 nM
13 | COc1cc(Nc2nccc(Nc3cnc4c(c3)C3CCC4C3)n2)ccc1O[C@H]1C[C@@H](N(C)C)C1 (some centres unmarked) [Compound 321, 4-{3-azatricyclo[6.2.1.02,7]undeca-2(7),3,5-trien-5-ylamino}-2-{3-methoxy-4-[(1s,3s)-3-(dimethylamino)cyclobutoxy]phenylamino}pyrimidine] | ≤ 500 nM
14 | COc1cc(Nc2nc(N)cc(Nc3cnc4cc(F)c(F)cc4c3)n2)cnc1O[C@H]1C[C@@H](N(C)C)C1 [Compound 252, 6-amino-4-(6,7-difluoro-3-quinolylamino)-2-{5-methoxy-6-[(1s,3s)-3-(dimethylamino)cyclobutoxy]-3-pyridylamino}pyrimidine] | 2000 to 10000 nM
15 | COc1cc(Nc2nccc(Nc3cc4cccc(Cl)c4[nH]c3=O)n2)ccc1O[C@H]1C[C@H](N(C)C)C1 [Compound 112, 8-chloro-3-(2-{3-methoxy-4-[(1r,3r)-3-(dimethylamino)cyclobutoxy]phenyl-amino}-4-pyrimidinylamino)-1,2-dihydro-2-quinolinone] | ≤ 500 nM
16 | COc1cc(Nc2nccc(Nc3cnc4cc(F)c(F)cc4c3)n2)cnc1N1CCN(C2COC2)CC1 [Compound 51, 4-(6,7-difluoro-3-quinolylamino)-2-{5-methoxy-6-[4-(3-oxetanyl)-1-piperazinyl]-3-pyridylamino}pyrimidine] | ≤ 500 nM
17 | COc1cc(Nc2nccc(Nc3cnc4ccc(F)c(F)c4c3)n2)ccc1O[C@H]1C[C@@H](N(C)C)C1 [Compound 125, 4-(5,6-difluoro-3-quinolylamino)-2-{3-methoxy-4-[(1s,3s)-3-(dimethylamino)cyclobutoxy]phenylamino}pyrimidine] | ≤ 500 nM
18 | COc1cc(Nc2nccc(Nc3cnc4c(c3)CCCC4)n2)ccc1O[C@H]1C[C@@H](N(C)C)C1 [Compound 364, 2-{3-methoxy-4-[(1s,3s)-3-(dimethylamino)cyclobutoxy]phenylamino}-4-(5,6,7,8-tetrahydro-3-quinolylamino)pyrimidine] | ≤ 500 nM
19 | COc1cc(Nc2nccc(Nc3cc4cccc(F)c4[nH]c3=O)n2)cnc1N1CCNCC1 [Compound 235, 8-fluoro-3-{2-[5-methoxy-6-(1-piperazinyl)-3-pyridylamino]-4-pyrimidinylamino}-1,2-dihydro-2-quinolinone] | ≤ 500 nM
20 | COc1cc(Nc2nccc(Nc3cc4ccccc4[nH]c3=O)n2)cnc1O[C@H]1C[C@@H](N(C)C)C1 [Compound 11, 3-(2-{5-methoxy-6-[(1s,3s)-3-(dimethylamino)cyclobutoxy]-3-pyridylamino}-4-pyrimidinylamino)-2(1H)-quinolinone] | ≤ 500 nM
21 | COc1cc(Nc2nccc(Nc3cnc4ccc(C(F)(F)F)cc4c3)n2)ccc1O[C@H]1C[C@H](N(C)C)C1 [Compound 334, 2-{3-methoxy-4-[(1r,3r)-3-(dimethylamino)cyclobutoxy]phenylamino}-4-[6-(trifluoromethyl)-3-quinolylamino]pyrimidine] | ≤ 500 nM
22 | COc1cc(Nc2nccc(Nc3cc4c(nc3C(N)=O)CCCC4)n2)ccc1O[C@H]1C[C@@H](N(C)C)C1 [Compound 256, 3-(2-{3-methoxy-4-[(1s,3s)-3-(dimethylamino)cyclobutoxy]phenylamino}-4-pyrimidinylamino)-5,6,7,8-tetrahydro-2-quinolinecarboxamide] | ≤ 500 nM

Results, then the compound that gave them:

Row | IC50 | Compound
23 | 2000 to 10000 nM | FC(F)(F)c1ccc2cc(Nc3ccnc(Nc4ccc(OCCCN5CCOCC5)cc4)n3)cnc2c1 [Compound 395, 2-[p-(3-morpholinopropoxy)phenylamino]-4-[7-(trifluoromethyl)-3-quinolylamino]pyrimidine]
24 | ≤ 500 nM | COc1cc(Nc2nccc(Nc3cnc4cc(F)c(F)cc4c3)n2)cnc1N1CCNC(C(F)F)C1 (centres unmarked) [Compound 482, 2-{6-[3-(difluoromethyl)-1-piperazinyl]-5-methoxy-3-pyridylamino}-4-(6,7-difluoro-3-quinolylamino)pyrimidine]
25 | ≤ 500 nM | COc1cc(Nc2nccc(Nc3cnc4c(c3)OCCO4)n2)ccc1O[C@H]1C[C@H](N2CCS(=O)(=O)CC2)C1 [Compound 359, 4-[(1r,3r)-3-{4-[4-(2,3-dihydro-1,4-dioxa-5-aza-7-naphthylamino)-2-pyrimidinylamino]-2-methoxyphenoxy}cyclobutyl]-1λ^6,4-thiazinane-1,1-dione]
26 | ≤ 500 nM | COc1cc(N2CCN(C)CC2)ncc1Nc1nccc(Nc2cnc3ccc(Cl)cc3c2)n1 [Compound 486, 4-(6-chloro-3-quinolylamino)-2-[4-methoxy-6-(4-methyl-1-piperazinyl)-3-pyridylamino]pyrimidine]
27 | ≤ 500 nM | COc1cc(Nc2nccc(Nc3cc4cccc(F)c4[nH]c3=O)n2)cnc1N1CCN(CC#N)CC1 [Compound 236, (4-{5-[4-(8-fluoro-2-oxo-1,2-dihydro-3-quinolylamino)-2-pyrimidinylamino]-3-methoxy-2-pyridyl}-1-piperazinyl)acetonitrile]
28 | 2000 to 10000 nM | COc1ccc2cc(Nc3ccnc(Nc4ccc(O[C@H]5C[C@H](N6CCS(=O)(=O)CC6)C5)cc4)n3)cnc2c1 [Compound 353]
29 | ≤ 500 nM | COc1cc(Nc2nccc(Nc3cc4cccc(F)c4[nH]c3=O)n2)cnc1N1CCOCC1 [Compound 241, 8-fluoro-3-[2-(5-methoxy-6-morpholino-3-pyridylamino)-4-pyrimidinylamino]-1,2-dihydro-2-quinolinone]
30 | ≤ 500 nM | COc1ccc2cc(Nc3ccnc(Nc4ccc(N5CCN(C)CC5)cc4OC)n3)cnc2c1 [Compound 463, 2-[2-methoxy-4-(4-methyl-1-piperazinyl)phenylamino]-4-(7-methoxy-3-quinolylamino)pyrimidine]
31 | ≤ 500 nM | c1cc(Nc2cnc3c(c2)C2CCC3CC2)nc(Nc2ccc(OCCCN3CCOCC3)cc2)n1 [Compound 373, 4-(3-azatricyclo[6.2.2.0^2,7]dodeca-2,4,6-trien-5-ylamino)-2-[p-(3-morpholinopropoxy)phenylamino] pyrimidine]
32 | ≤ 500 nM | COc1cc(N2CCN(C)CC2)ccc1Nc1nccc(Nc2cnc3c(Cl)cccc3c2)n1 [Compound 467, 4-(8-chloro-3-quinolylamino)-2-[2-methoxy-4-(4-methyl-1-piperazinyl)phenylamino] pyrimidine]
